Patent publication US11702418B2, “SOS1 inhibitors” (priority 2019, dated 2023)
pIC50, pKi: −log10 of the molar value. Structures can show the parent of a compound that is named as a salt. Where two headings read alike, the source gives them in different places.

Key:
pERK in MKN1 cells = experiment: cells; type: cell-based; conditions: Homo sapiens, MKN-1, pERK inhibition, In-Cell Western; MKN1 or H358 cells (Table 24 does not say which); 0.5-1 hour incubation; read-out: IC50
Description: The cells were incubated for approximately 0.5-1 hour with the compounds solubilized in DMSO at 37° C. Cells were immediately fixed by adding 50 μL of 4% formaldehyde to all wells in a fume hood and the plates were incubated for 20 minutes at room temperature. The formaldehyde was discarded from the plates and 150 μL of ice-cold methanol was added to permeabilize the cells for 10 minutes at −20° C. The methanol was discarded from each of the plates and any liquid remaining in the plate by tapping the plate against paper towels. […] The plates were incubated overnight at 4° C. on a shaker.
On Assay day 2, the primary antibody solution was removed. […] The secondary antibody solution as removed and each plate was washed with PBST 3× times. Any liquid remaining was discarded and the plate was imaged using the Licor Odyssey machine according to the manufacturer's instruction, using a set focus length at 3 mm and both 800 nm and 700 nm filters. The GAPDH normalized scan values for each well were divided by the average of vehicle wells to get the % of pERK inhibition. The IC50 values were then calculated with the Graph pad Prism software.

[1] = molecular target: recombinant human SOS1 polypeptide (amino acids 560-1049) (Homo sapiens (Human), UniProt Q07889); experiment: biochemical; type: binding; conditions: read-out: Ki, Inhibition of Labeled Tracer Binding to SOS1
recombinant human SOS1 polypeptide (amino acids 560-1049), sequence (Q07889 560-1049): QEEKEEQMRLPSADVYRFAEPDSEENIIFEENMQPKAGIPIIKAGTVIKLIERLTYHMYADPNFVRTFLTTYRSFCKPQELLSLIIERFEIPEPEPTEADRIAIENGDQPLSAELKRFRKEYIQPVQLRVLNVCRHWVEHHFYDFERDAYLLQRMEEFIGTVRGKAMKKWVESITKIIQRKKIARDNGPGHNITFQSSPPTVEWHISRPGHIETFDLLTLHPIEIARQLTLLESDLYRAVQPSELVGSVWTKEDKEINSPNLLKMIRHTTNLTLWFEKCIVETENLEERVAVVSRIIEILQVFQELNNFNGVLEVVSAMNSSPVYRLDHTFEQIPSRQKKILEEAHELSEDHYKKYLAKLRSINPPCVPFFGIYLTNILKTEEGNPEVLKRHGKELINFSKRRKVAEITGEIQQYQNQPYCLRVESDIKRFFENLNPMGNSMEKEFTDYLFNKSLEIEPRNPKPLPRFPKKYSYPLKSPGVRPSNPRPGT

[2] = HTRF displacement, Cy5 labelled tracer, Morrison equation for competitive binding

| SMILES | pKi [1, 2] | further results |
| --- | --- | --- |
| Cc1c([C@@H](C)Nc2nncc3ccc(N4CCn5c(nc6ccccc65)C4)cc23)cccc1C(F)(F)F [Example 1-46, (R)-7-(3,4-dihydrobenzo[4,5]imidazo[1,2-a]pyrazin-2(1H)-yl)-N-(1-(2-methyl-3-(trifluoromethyl)phenyl)ethyl)phthalazin-1-amine] | – | pIC50 (pERK in MKN1 cells): 6.47 |
| Cc1c(C#N)cc(F)cc1[C@@H](C)Nc1nnc(C)c2cnc(N3CC(C)(O)C3)cc12 [Example 12-107] | 7.45 | – |
| COc1nnc(N[C@H](C)c2cccc(C(F)(F)F)c2C)c2cc(N3CCNCC3)ccc12 [Example 9-1, (R)-4-methoxy-N-(1-(2-methyl-3-(trifluoromethyl)phenyl)ethyl)-7-(piperazin-1-yl)phthalazin-1-amine] | – | pIC50 (pERK in MKN1 cells): < 5.00 |
| Cc1c(C#N)cccc1[C@@H](C)Nc1nnc(C)c2cnc(N3CCN4CCC[C@@H]4C3)cc12 [Example 12-73] | 8.78 | – |
| Cc1c([C@@H](C)Nc2nncc3ccc(N4CCOCC4C)cc23)cccc1C(F)(F)F (stereo partly drawn) [Example 1-27, N-((R)-1-(2-methyl-3-(trifluoromethyl)phenyl)ethyl)-7-(3-methylmorpholino)phthalazin-1-amine] | – | pIC50 (pERK in MKN1 cells): 7.21 |
| Cc1c([C@@H](C)Nc2nncc3ccc(N4CCCC(N5CCC5)C4)cc23)cccc1C(F)(F)F (stereo partly drawn) [Example 1-49, 7-(3-(azetidin-1-yl)piperidin-1-yl)-N-((R)-1-(2-methyl-3-(trifluoromethyl)phenyl)ethyl)phthalazin-1-amine] | – | pIC50 (pERK in MKN1 cells): 6.37 |
| Cc1c(C#N)cccc1[C@@H](C)Nc1nnc(C)c2cnc(N3C[C@H]4CC[C@@H]3CN4CCO)cc12 [Example 12-89] | 9.60 | – |
| Cc1nnc(N[C@H](C)c2cccc(C#N)c2C(F)(F)F)c2cc(N3C[C@H]4C[C@@H]3CO4)ncc12 [Example 12-127] | 8.22 | – |
| C[C@@H](Nc1nncc2ccc(N3CCOCC3)cc12)c1cc(-c2ccccc2CN(C)C)cs1 [Example 2-1, (R)—N-(1-(4-(2-((dimethylamino)methyl)phenyl)thiophen-2-yl)ethyl)-7-morpholinophthalazin-1-amine] | – | pIC50 (pERK in MKN1 cells): 6.51 |
| Cc1c([C@@H](C)Nc2nnc(C)c3cnc(N4CCN5CCOC[C@@H]5C4)cc23)cc(F)cc1C(F)(F)F [Example 12-112] | 8.66 | – |
| Cc1c([C@@H](C)Nc2nncc3ccc(N4CCCCC(N(C)C)C4)cc23)cccc1C(F)(F)F (stereo partly drawn) [Example 1-50, 7-(3-(dimethylamino)azepan-1-yl)-N-((R)-1-(2-methyl-3-(trifluoromethyl)phenyl)ethyl)phthalazin-1-amine] | – | pIC50 (pERK in MKN1 cells): 6.34 |
| COCCN1CCC(Oc2ccc3cnnc(N[C@H](C)c4cccc(C(F)(F)F)c4C)c3c2)CC1 [Example 2-9, (R)-7-((1-(2-methoxyethyl)piperidin-4-yl)oxy)-N-(1-(2-methyl-3-(trifluoromethyl)phenyl)ethyl)phthalazin-1-amine] | – | pIC50 (pERK in MKN1 cells): 6.76 |
| Cc1c(C#N)cccc1[C@@H](C)Nc1nnc(C)c2ccc(N3CC(C)(N4CCOCC4)C3)cc12 [Example 10-83, (R)-2-methyl-3-(1-((4-methyl-7-(3-methyl-3-morpholinoazetidin-1-yl)phthalazin-1-yl)amino)ethyl)benzonitrile Formate salt] | – | pKi [1]: 8.34 |
| Cc1nnc(N[C@H](C)c2cccc(F)c2Cl)c2cc(N3CC4CC(C3)O4)ncc12 [Example 12-77] | 7.55 | – |
| Cc1c(C#N)cccc1[C@@H](C)Nc1nnc(C)c2cnc(N3CC4(CCOC4)C3)cc12 [Example 12-71] | 8.35 | – |
| CCN1CCN(c2cc3c(N[C@H](C)c4cccc(C(F)(F)F)c4F)nnc(C)c3cn2)CC1 [Example 12-68] | 9.43 | – |
| Cc1c([C@@H](C)Nc2nnc(C)c3cnc(N4CC(C)(N(C)C)C4)cc23)cc(F)cc1C(F)(F)F [Example 12-110] | 8.45 | – |
| Cc1nnc(N[C@H](C)c2cc(F)cc(C#N)c2F)c2cc(N3C[C@H]4C[C@@H]3CO4)ncc12 [Example 12-114] | 7.16 | – |
| Cc1cccc([C@@H](C)Nc2nnc(C)c3cnc(N4CC5CC(C4)O5)cc23)c1F [Example 12-134] | 8.15 | – |
| Cc1c(C#N)cccc1[C@@H](C)Nc1nnc(C)c2cnc(N3CCN4CCCC[C@@H]4C3)cc12 [Example 12-86] | 9.01 | – |
| CCN1CCN(c2cc3c(N[C@H](C)c4cccc(C(F)F)c4F)nnc(C)c3cn2)CC1 [Example 12-102] | 9.60 | – |
| Cc1c(F)cccc1[C@@H](C)Nc1nnc(C)c2cnc(N3CC(C)(O)C3)cc12 [Example 12-81] | 7.54 | – |
| Cc1nnc(N[C@H](C)c2cccc(C(F)F)c2F)c2cc(N3CCN4CCOC[C@@H]4C3)ncc12 [Example 12-100] | 8.97 | – |
| Cc1c(C#N)cccc1[C@@H](C)Nc1nnc(C)c2cnc(N3CC(C)(N4CCOCC4)C3)cc12 [Example 12-87] | 8.50 | – |
| CNCc1nnc(N[C@H](C)c2cccc(C#N)c2C)c2cc(N3C[C@H]4C[C@@H]3CO4)ncc12 [Example 14-3, 3-((R)-1-((7-((1R,4R)-2-oxa-5-azabicyclo[2.2.1]heptan-5-yl)-4-((methylamino)methyl)pyrido[3,4-d]pyridazin-1-yl)amino)ethyl)-2-methylbenzonitrile] | 7.84 | – |

| SMILES | pKi [1, 2] | further results |
| --- | --- | --- |
| Cc1nnc(N[C@H](C)c2cc(F)cc(C#N)c2F)c2cc(N3CCC(C)(N(C)C)CC3)ncc12 [Example 12-123] | 7.30 | – |
| CNCc1cccc([C@@H](C)Nc2nnc(C)c3cc(OC)c(OC)cc23)c1C [Example 5-3, (R)-6,7-dimethoxy-4-methyl-N-(1-(2-methyl-3-((methylamino)methyl)phenyl)ethyl)phthalazin-1-amine] | 6.41 | – |
| Cc1c([C@@H](C)Nc2nnc(C)c3cnc(N4CC(C)(O)C4)cc23)cc(F)cc1C(F)(F)F [Example 12-111] | 8.09 | – |
| Cc1nnc(N[C@H](C)c2cc(F)cc(C#N)c2F)c2cc(N3CC(C)(N(C)C)C3)ncc12 [Example 12-122] | 6.77 | – |
| Cc1nnc(N[C@H](C)c2cc(N)cc(C(F)(F)F)n2)c2cc(N3CCN(C)CC3)ncc12 [Example 16-12, (R)-N-(1-(4-amino-6-(trifluoromethyl)pyridin-2-yl)ethyl)-4-methyl-7-(4-methylpiperazin-1-yl)pyrido[3,4-d]pyridazin-1-amine] | 8.02 | – |
| Cc1c(C#N)cccc1[C@@H](C)Nc1nnc(C)c2ccc(N3CC4(CCCN4C)C3)cc12 [Example 10-84, (R)-2-methyl-3-(1-((4-methyl-7-(5-methyl-2,5-diazaspiro[3.4]octan-2-yl)phthalazin-1-yl)amino)ethyl)benzonitrile] | 8.70 | – |
| Cc1c(C#N)cc(F)cc1[C@@H](C)Nc1nnc(C)c2cnc(N3CC(C)(N(C)C)C3)cc12 [Example 12-108] | 7.66 | – |
| CNCc1cccc([C@@H](C)Nc2nnc(C)c3ccc(N4CCOCC4)cc23)c1C [Example 6-8, (R)-4-methyl-N-(1-(2-methyl-3-((methylamino)methyl)phenyl)ethyl)-7-morpholinophthalazin-1-amine] | 7.41 | – |
| Cc1c(C#N)cccc1[C@@H](C)Nc1nnc(C)c2cnc(N3CC4(CCCN4C)C3)cc12 [Example 12-88] | 8.69 | – |
| Cc1c(F)cccc1[C@@H](C)Nc1nnc(C)c2cnc(N3CC4CC(C3)O4)cc12 [Example 12-126] | 7.85 | – |
| Cc1nnc(N[C@H](C)c2cccc(C(F)F)c2F)c2cc(N3C[C@H]4C[C@@H]3CO4)ncc12 [Example 12-99] | 9.03 | – |
| Cc1nnc(N[C@H](C)c2cc(F)cc(C#N)c2F)c2cc(N3CCN4CCOC[C@@H]4C3)ncc12 [Example 12-120] | 7.30 | – |
| Cc1c([C@@H](C)Nc2nnc(C)c3cnc(N4CC5CC(C4)O5)cc23)cc(F)cc1C(F)(F)F [Example 12-113] | 8.58 | – |
| Cc1c(C#N)cccc1[C@@H](C)Nc1nnc(C)c2cnc(N3CC[C@H](N(C)C)C3)cc12 [Example 12-69] | 9.03 | – |
| Cc1c(C#N)cccc1[C@@H](C)Nc1nnc(C)c2cc(F)c(N3CCN(C)CC3)cc12 [Example 18-3, (R)-3-(1-((6-fluoro-4-methyl-7-(4-methylpiperazin-1-yl)phthalazin-1-yl)amino)ethyl)-2-methylbenzonitrile] | 8.86 | – |
| Cc1nnc(N[C@H](C)c2cc(N)cc(C(F)(F)F)n2)c2cc(N3CC(C)(N(C)C)C3)ncc12 [Example 16-11, (R)-N-(1-(4-amino-6-(trifluoromethyl)pyridin-2-yl)ethyl)-7-(3-(dimethylamino)-3-methylazetidin-1-yl)-4-methylpyrido[3,4-d]pyridazin-1-amine] | 6.97 | – |
| Cc1c(C#N)cccc1[C@@H](C)Nc1nnc(C)c2ccc(N3CC4(CCOC4)C3)cc12 [Example 10-80, (R)-2-methyl-3-(1-((4-methyl-7-(6-oxa-2-azaspiro[3.4]octan-2-yl)phthalazin-1-yl)amino)ethyl)benzonitrile Hydrochloride salt] | – | pKi [1]: 8.24 |
| Cc1c(C#N)cccc1[C@@H](C)Nc1nnc(C)c2ccc(N3CCN4CCC[C@@H]4C3)cc12 [Example 10-81, 3-((R)-1-((7-((R)-hexahydropyrrolo[1,2-a]pyrazin-2(1H)-yl)-4-methylphthalazin-1-yl)amino)ethyl)-2-methylbenzonitrile] | 9.05 | – |
| Cc1nnc(N[C@H](C)c2cccc(F)c2Cl)c2cc(N3CCN4CCOC[C@@H]4C3)ncc12 [Example 12-74] | 7.98 | – |
| Cc1c([C@@H](C)Nc2nnc(C)c3cnc(N4C[C@H]5C[C@@H]4CO5)cc23)cc(F)cc1C(F)(F)F [Example 12-109] | 8.58 | – |
| Cc1nnc(N[C@H](C)c2cccc(F)c2F)c2cc(N3CC4CC(C3)O4)ncc12 [Example 12-98] | 7.72 | – |
| Cc1nnc(N[C@H](C)c2cccc(C(F)(F)F)c2F)c2cc(N3CCN4CCOC[C@@H]4C3)ncc12 [Example 12-63] | 9.08 | – |
| Cc1nnc(N[C@H](C)c2cc(F)cc(C#N)c2F)c2cc(N3CC4CC(C3)O4)ncc12 [Example 12-121] | 7.41 | – |
| Cc1nnc(N[C@H](C)c2cccc(C(F)(F)F)c2F)c2cc(N3CCN(C)CC3)ncc12 [Example 12-67] | 9.44 | – |
